Results on seven compounds are retold here after ChEMBL document CHEMBL1201862, “PubChem BioAssay data set” (2004).

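48-hour exposure; five concentrations; linearly interpolated endpoints. The concentration for 50% growth inhibition is given as GI50.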 Activity calls are given as the source filed them. No stated cut-off is given here; in the data, active = GI50 up to about 1.1 µM and inactive = higher. Bounds are passed on as bounds.

Some test systems named below: OVCAR-8; A498; SF-295; NCI-H226; TK-10; T47D; UACC-257; SW-620; EKVX; RPMI-8226; LOX IMVI; CCRF-CEM; HT-29; MDA-MB-231; A549; HCT-116; SK-MEL-5; 786-0; SK-MEL-2; SR.
Holding throughout (assay): NCI tumour cell line growth inhibition, 48 h

As to `CN(C)/N=N/c1nc2c(c(=O)n(C)c(=O)n2C)n1C`, the GI50 is > 100 µM (inactive) in the experiment on OVCAR-8; > 100 µM (inactive) in the experiment on A498; > 100 µM (inactive) with SF-295; > 100 µM (inactive) in the experiment with NCI-H226; > 100 µM (inactive) in the experiment with TK-10; 14.3 µM (inactive) in the experiment on T47D. The GI50 with UACC-257, with SW-620, in the experiment with EKVX, with RPMI-8226, with LOX IMVI and in the experiment with CCRF-CEM was > 100 µM (inactive) in each case. In addition, the GI50 with HT-29, in the experiment on MDA-MB-231, with A549, with HCT-116, in the experiment with SK-MEL-5 and in the experiment on 786-0 was > 100 µM (inactive) each time. The GI50 in the experiment on SK-MEL-2 was > 100 µM (inactive); in the experiment with SR it was 4.04 µM (inactive).
Turning to `CCN(CC)CCCNc1ccc([N+](=O)[O-])c2nc3ccc(OC)cc3c(N)c12`, the GI50 is 1.95 µM (inactive) in the experiment on OVCAR-8; > 10 µM (inactive) in the experiment with A498; 1.82 µM (inactive) in the experiment on SF-295; > 10 µM (inactive) in the experiment on NCI-H226; > 10 µM (inactive) with TK-10; > 10 µM (inactive) in the experiment on T47D. Moreover, the GI50 was > 10 µM (inactive) with UACC-257; 1.49 µM (inactive) in the experiment on SW-620; > 10 µM (inactive) in the experiment on EKVX; 2 µM (inactive) with RPMI-8226; 1.7 µM (inactive) in the experiment on LOX IMVI; 1.34 µM (inactive) with CCRF-CEM. The GI50 in the experiment with HT-29 is 1.77 µM (inactive); with MDA-MB-231, 1.7 µM (inactive); in the experiment on A549, 1.86 µM (inactive); in the experiment on HCT-116, 1.05 µM (active); with SK-MEL-5, > 5.16 µM (inactive); in the experiment with 786-0, 1.44 µM (inactive). Also, the figures for the GI50 in the experiment on SK-MEL-2 and with SR were > 9.33 µM (inactive) and 1.51 µM (inactive), respectively.
For the compound `CS(=O)(=O)OCCN(CCOS(C)(=O)=O)c1ccc(/C=N/c2ccc(-c3csc(Cc4ccccc4)n3)cc2)c(Cl)c1`, the GI50 is 27.4 µM (inactive) in the experiment with OVCAR-8; 0.102 µM (active) in the experiment with A498; 30.2 µM (inactive) in the experiment with SF-295; 0.218 µM (active) with NCI-H226; 3.93 µM (inactive) in the experiment with TK-10; 30.8 µM (inactive) with T47D. Besides, the GI50 in the experiment with UACC-257 was 3.83 µM (inactive); in the experiment on SW-620, 31.8 µM (inactive); with EKVX, 36.5 µM (inactive); with RPMI-8226 it was 23.8 µM (inactive); in the experiment on LOX IMVI, 20.1 µM (inactive); in the experiment on CCRF-CEM, 10.1 µM (inactive). The GI50 in the experiment with HT-29 was 21.9 µM (inactive); with MDA-MB-231 it was 25 µM (inactive); with A549, 11.6 µM (inactive); in the experiment with HCT-116, 19.5 µM (inactive); in the experiment on SK-MEL-5, 16.4 µM (inactive); with 786-0 it was 23 µM (inactive). In addition, the GI50 in the experiment on SK-MEL-2 was > 46 µM (inactive); with SR, 23.7 µM (inactive).
Consider `Cc1cc(S(=O)(=O)Nc2nc(Nc3ccccc3)n[nH]2)c(SCC(=O)O)cc1Cl`, for which the GI50 with OVCAR-8, in the experiment with A498, in the experiment on SF-295, in the experiment on NCI-H226, with TK-10 and with T47D was > 100 µM (inactive) in each case. For the same compound, the GI50 with UACC-257, in the experiment on SW-620, with EKVX, with RPMI-8226, in the experiment with LOX IMVI and in the experiment with CCRF-CEM was > 100 µM (inactive) each time. Also, the GI50 in the experiment on HT-29, in the experiment on MDA-MB-231, with A549, in the experiment with HCT-116, in the experiment with SK-MEL-5 and in the experiment on 786-0 was > 100 µM (inactive) in each case. The GI50 with SK-MEL-2 and in the experiment on SR was > 100 µM (inactive) each time.
Take `C=C1C(=O)OC2/C=C(/C)C(OC(C)=O)C/C=C(\C)C(OC(=O)C3(C)OC3C)C(O)C12` (stereo not given): the GI50 in the experiment on OVCAR-8, in the experiment on A498, in the experiment on SF-295, in the experiment with NCI-H226, with TK-10 and with T47D was > 100 µM (inactive) throughout. Further, the GI50 is > 100 µM (inactive) in the experiment on UACC-257; 42.4 µM (inactive) with SW-620; > 100 µM (inactive) with EKVX; 43.9 µM (inactive) in the experiment with RPMI-8226; 30.8 µM (inactive) in the experiment on LOX IMVI; 34 µM (inactive) in the experiment with CCRF-CEM. Also, the GI50 was > 100 µM (inactive) with HT-29; > 100 µM (inactive) with MDA-MB-231; > 100 µM (inactive) with A549; 39.7 µM (inactive) in the experiment on HCT-116; > 100 µM (inactive) in the experiment with SK-MEL-5; 47.4 µM (inactive) in the experiment on 786-0. The GI50 in the experiment with SK-MEL-2 was > 100 µM (inactive); in the experiment on SR, 39.4 µM (inactive).
As to `O=c1oc2ccccc2cc1-c1csc(Nc2ccc(F)cc2)n1`, the GI50 is 2.77 µM (inactive) in the experiment with OVCAR-8; 1.29 µM (inactive) in the experiment on A498; 3.62 µM (inactive) in the experiment with SF-295; 3.1 µM (inactive) with NCI-H226; 2.98 µM (inactive) in the experiment with TK-10; 2.3 µM (inactive) with T47D. Also, the GI50 in the experiment on UACC-257 was 14.8 µM (inactive); in the experiment with SW-620, 5 µM (inactive); with EKVX it was 1.97 µM (inactive); with RPMI-8226 it was 0.216 µM (active); in the experiment on LOX IMVI, 4.7 µM (inactive); with CCRF-CEM, 2.77 µM (inactive). In addition, the GI50 in the experiment on HT-29 is 3.43 µM (inactive); with MDA-MB-231 it was 11.3 µM (inactive); with A549 it was 1.67 µM (inactive); in the experiment on HCT-116, 2.33 µM (inactive); with SK-MEL-5, 10.4 µM (inactive); with 786-0, 1.79 µM (inactive). Moreover, the GI50 in the experiment with SK-MEL-2 was 14.8 µM (inactive); in the experiment on SR, 2.36 µM (inactive).
Consider `N=C(N)CCNC(=O)C1CCC(N)=N1` (stereo not given), for which the GI50 in the experiment on OVCAR-8 is 7.28 µM (inactive); with A498 it was 16 µM (inactive); in the experiment with SF-295 it was 18.9 µM (inactive); with NCI-H226, 18.1 µM (inactive); with TK-10 it was 22.7 µM (inactive); in the experiment with T47D, 6.5 µM (inactive). Further, the GI50 with UACC-257 is 13.7 µM (inactive); in the experiment on SW-620 it was 22.1 µM (inactive); in the experiment on EKVX, 9.12 µM (inactive); in the experiment with RPMI-8226 it was 29.9 µM (inactive); in the experiment with LOX IMVI, 15.8 µM (inactive); in the experiment on CCRF-CEM, 12.5 µM (inactive). For the same compound, the GI50 was 5.2 µM (inactive) with HT-29; 14.7 µM (inactive) in the experiment on MDA-MB-231; 6.49 µM (inactive) with A549; 13.1 µM (inactive) with HCT-116; 16.4 µM (inactive) with SK-MEL-5; 13.1 µM (inactive) in the experiment on 786-0. In addition, the GI50 in the experiment with SK-MEL-2 is 27.2 µM (inactive); with SR it was 18.5 µM (inactive).
